In one series the test system is HaCaT cells. Description: LDH release from HaCaT cells. It counts as cell-based, human. The note with it: 100 µM; over night; colorimetric; vs 2% Triton-X100. As to the method: (§1) The cytotoxicity of MSP was evaluated by the ability of 100 µM MSP66–76 or MSP66–76E/Q to cause LDH release from HaCaT cells and lysis of erythrocytes.
(§2) Supplementary file ppat.1002625.s006.tif: Table S1 Cytoxic and hemolytic Effect of MSP66–76E/Q and MSP66–76. HaCaT cells were treated with 100 µM of MSP66–76E/Q and MSP66–76 over night. The release of LDH was subsequently determined by colorimetric assay and depicted as percent of LDH release of cells treated with 2% Triton- X100. Erythrocytes were treated for 1 ½ hour with 100 µM of MSP66–76E/Q and MSP66–76 followed by centrifugation. Lysis was determined by measuring hemoglobin in the supernatant by measuring the absorbance at 550 nm. Results are depicted as % of lysis compared to lysis obtained by 2% Triton-X100. (TIF) Click here for additional data file.
(LDH leaks from cells whose membrane has failed.)

A further series has as its system erythrocytes. Put plainly: Lysis of erythrocytes. The following applies: 100 µM; 1 ½ hour; absorbance at 550 nm; vs 2% Triton-X100. It counts as cell-based, human. The procedure:
as §1, §2

Series [1] relates to Candida albicans ATCC 90028. Description: CFU assay with C. albicans. The class given is cell-based. The note with it: for Estimate (difference between means of log values): control - treatment, pH 4. From the text:
Candida albicans strains: ATCC 90028, CAF-1-2, SC5814, BM4f35II68, vaginal clinical isolates from Dept. of Clincal Microbiology, Skåne University Hospital, SO_303369 and SO_503471. Candida parapsilosis strains: ATCC 90018, BD1800, BD17837, and BM24/68/09. Candida glabrata strains: ATCC 90030, clinical isolates from Dept. of Clincal Microbiology, Skåne University Hospital, SO_3336, SO_3400 and SO_503413. All strains were inoculated from frozen culture and grown in Yeast extract-Peptone-Dextrose (YPD) (Sigma) and on Sabourand Dextrose Broth (SAB) (Difco) plates at 30°C with 5% (v/v) CO2. If not otherwise stated, ATCC 90028 was used for candidacidal experiments.
(§3) Candida albicans was grown over night, washed, and resuspended in 10 mM Tris, 5 mM glucose, pH 7.4 or pH 4. Approximately 4×10^3 to 10^4 CFU of C. albicans were incubated with the test substance in low or neutral pH buffer for 4 h at 37°C. After incubation, the suspension was diluted and plated. Colonies were counted after two days incubation of the plates at 30°C. Bacteria from overnight cultures were inoculated in fresh medium and grown for 3 h, washed in 10 mM Tris, 5 mM glucose pH 7.4. Approximately 8×10^4 CFU were incubated with sample in 10 mM Tris, 5 mM glucose pH 7.4 or pH 4 for 1 h at 37°C, diluted, plated and incubated over night at 37°C and the colonies counted.
Statistical analysis was performed using SAS 9.2 software (SAS Institute, Cary, NC). Colony counts were log transformed. In order to choose the statistical method, interactions between the Treatment and Experiment were investigated. Treatments were screened by doing pair wise comparisons of each treatment to a control. Statistical tests used for the comparisons included MIXED procedure and LSMEANS statement. All tests where P-value<.05 were considered to indicate statistical significance. P-values were not adjusted for the multiple comparisons.
“Estimate” is the estimate of the difference between means of log values of treatment 1 and treatment 2

In the next series the test system is C. albicans. Description: Antifungal gel overlay assay (AU-PAGE). It counts as cell-based, Candida albicans. The procedure:
Gel overlay assay was performed essentially as described. Briefly, duplicate samples were run on native Acid Urea (AU-PAGE) gels in 5% (v/v) acetic acid at 100 V for 1 h 20 min. Candida albicans was grown over night, washed and resuspended in 10 mM NaPO4 pH 7.4 and approximately 1×10^5 CFU were added to 12 ml melted underlay agarose (10 mM NaPO4, pH 7.4, 0.03% SAB, 1% agarose type 1 (Sigma, St. Louis, MO)) and poured into a square Petri dish. One AU-gel was stained with Coomassie brilliant blue and one AU gel was washed 3×4 min in 10 mM NaPO4, pH 7.4 and then placed on top of the agarose and incubated for 4 h at 37°C. The AU gel was then removed and an overlay agarose (6% SAB, 1% agarosetype 1 (Sigma)) was poured on top of the underlay and incubated over night at 30°C. To make the clearing zones more visible, the agarose was stained with Coomassie brilliant blue followed by destaining.

In another series the test system is S. agalactiae (SB1). Put plainly: Antibacterial CFU assay. The class given is cell-based. The note with it: purified MSP 10 µM + 20 µM EDTA or recombinant dialyzed MSP 10 µM + 10 µM EDTA; neutral pH; data not shown. The procedure:
as §3, with “E. coli (strain 37.4), S. aureus (strain 5120), S. pyogenes (M5 Manfredo), S. agalactiae (SB1), and E. faecalis (strain 2374) were grown in THY medium (Todd Hewitt with addition of yeast) and on THY agar plates at 37°C with 5% (v/v) CO2. Candida” for “Candida”

Another series deals with E. coli (strain 37.4). Put plainly: Antibacterial CFU assay. It counts as cell-based. The following applies: purified MSP 10 µM + 20 µM EDTA or recombinant dialyzed MSP 10 µM + 10 µM EDTA; low and neutral pH; data not shown. As to the method: as §3, with “E. coli (strain 37.4), S. aureus (strain 5120), S. pyogenes (M5 Manfredo), S. agalactiae (SB1), and E. faecalis (strain 2374) were grown in THY medium (Todd Hewitt with addition of yeast) and on THY agar plates at 37°C with 5% (v/v) CO2. Candida” for “Candida”

Series [2] has as its system S. pyogenes (M5 Manfredo). Put plainly: Antibacterial CFU assay. The class given is cell-based. The following applies: purified MSP 10 µM + 20 µM EDTA or recombinant dialyzed MSP 10 µM + 10 µM EDTA; neutral pH; data not shown. As to the method:
as §3, with “E. coli (strain 37.4), S. aureus (strain 5120), S. pyogenes (M5 Manfredo), S. agalactiae (SB1), and E. faecalis (strain 2374) were grown in THY medium (Todd Hewitt with addition of yeast) and on THY agar plates at 37°C with 5% (v/v) CO2. Candida” for “Candida”

A further series concerns S. aureus (strain 5120). Description: Antibacterial CFU assay. It counts as cell-based. The note with it: purified MSP 10 µM + 20 µM EDTA or recombinant dialyzed MSP 10 µM + 10 µM EDTA; neutral pH; data not shown. The procedure:
as §3, with “E. coli (strain 37.4), S. aureus (strain 5120), S. pyogenes (M5 Manfredo), S. agalactiae (SB1), and E. faecalis (strain 2374) were grown in THY medium (Todd Hewitt with addition of yeast) and on THY agar plates at 37°C with 5% (v/v) CO2. Candida” for “Candida”

For series [3], the system named is E. faecalis (strain 2374). Put plainly: Antibacterial CFU assay. The class given is cell-based. The note with it: purified MSP 10 µM + 20 µM EDTA or recombinant dialyzed MSP 10 µM + 10 µM EDTA; low and neutral pH; data not shown. As to the method:
as §3, with “E. coli (strain 37.4), S. aureus (strain 5120), S. pyogenes (M5 Manfredo), S. agalactiae (SB1), and E. faecalis (strain 2374) were grown in THY medium (Todd Hewitt with addition of yeast) and on THY agar plates at 37°C with 5% (v/v) CO2. Candida” for “Candida”

The values below come from PMC3320615, “β-Microseminoprotein Endows Post Coital Seminal Plasma with Potent Candidacidal Activity by a Calcium- and pH-Dependent Mechanism” (PLoS Pathogens, 2012).

Regarding “RIFKKQDCKYI [MSP66–76E/Q, mutated form of MSP66–76 where E71 was substituted with a glutamine]”, in the series on HaCaT cells, the “LDH release from HaCaT cells” value is reported as “No significant LDH release”. Besides, the Lysis of erythrocytes result with erythrocytes is listed as “No significant LDH release or lysis”. Further, in series [1] (acidic pH, Figure S2), the “Effect of 0.5 mM calcium on antifungal activity” value was “not inhibited”. For the same molecule, the “Estimate (difference between means of log values)” value is listed as 3.1854 in series [1] (140 µM + 0.5 mM calcium, experiment 1); 2.1182 in series [1] (140 µM + 0.5 mM calcium, experiment 2); 2.6879 in series [1] (140 µM + 0.5 mM calcium, experiment 3); 4.0137 in [1] (140 µM + 0.5 mM magnesium, experiment 1); 1.7951 in series [1] (140 µM + 0.5 mM magnesium, experiment 2); 4.5634 in series [1] (140 µM + 0.5 mM magnesium, experiment 3). Also, the “Estimate (difference between means of log values)” value was 5.3523 in series [1] (140 µM, experiment 1); 5.6354 in series [1] (140 µM, experiment 2); 5.8836 in series [1] (140 µM, experiment 3). Besides, the “Calcium concentration inhibiting the antifungal activity” value in series [1] (neutral pH, Figure S2) was in the range of 50 to 100 µM.
For the molecule “prostate specific antigen: major protein from the prostate [reference compound]”, the “Clearing zone in antifungal gel overlay assay” value in the series on C. albicans is “did not give rise to clearing zones”.

B1: recombinant MSP: Recombinant human β-microseminoprotein from R&D Systems (protein)
chain: SCYFIPNEGVPGDSTRKCMDLKGNKHPINSEWQTDNCETCTCYETEISCCTLVSTPVGYDKDNCQRIFKKEDCKYIVVEKKDPKKTCSVSEWII
On to B1, for which, in the series with C. albicans, the “Clearing zone in antifungal gel overlay assay” value is on record as “displayed antifungal activity by producing a clearing zone”. Moreover, the “Fungicidal activity in CFU assay” value in series [1] (native MSP 10 µM + 20 µM EDTA or recombinant dialyzed MSP 10 µM + 10 µM EDTA) is “prominent fungicidal activity”. Also, the “Antibacterial activity in CFU assay” value (in the series on S. agalactiae (SB1); with E. coli (strain 37.4); in [2]; with S. aureus (strain 5120); in series [3]) was “no antibacterial activity” throughout.
